Measurements as given in patent US20190000760A1, “NANOPARTICLE-AQUEOUS DISPERSION LIQUID OF GLYCOSPHINGOLIPID” (REGiMMUNE Corporation, priority 2015, published 2019).

Test: Average particle size and particle distribution by dynamic light scattering (Zetasizer Nano ZS)
Format: physicochemical
Conditions: for average particle size / particle distribution: DMSO as organic solvent
Description: (§1) KRN7000 was weighed in a test tube, 99.5% ethanol was added to adjust the concentration to 4 mg/mL, and the mixture was then heated to 76° C. to completely dissolve the KRN7000, so that a glycosphingolipid solution was obtained (the same applies for RCAI-56 or RCAI-61). On the other hand, inulin was weighed in a test tube, sterilized distilled water was added to adjust the concentration to 35 mg/mL, and the inulin was then completely dissolved to obtain an inulin solution. 50 μL of the glycosphingolipid solution was transferred to an additionally provided test tube, 950 μL of the inulin solution was added thereto, and quickly mixed by vortex, the mixture was left standing overnight at room temperature, and an equal amount of pure water was then added to reduce the concentration to ½. For the obtained dispersion solution, the average particle size and particle distribution were measured by a dynamic light scattering method (Zetasizer Nano ZS, Malvern). […] The final components of the glycosphingolipid hydrophilic protective colloidal solution obtained by this method, and the concentrations thereof are as follows: 0.1 mg/mL of glycosphingolipid, 17.5 mg/mL of inulin and 2.5% of ethanol.
as §1, with “pullulan” for “inulin”, “10” for “35”, “a pullulan” for “an inulin”, “glycosphingolipid” for “glycosphingolipid hydrophilic”, “5.0” for “17.5”
as §1, with “HPMC” for “inulin”, “1” for “35”, “a HPMC” for “an inulin”, “glycosphingolipid” for “glycosphingolipid hydrophilic”, “0.5” for “17.5”
Preparation of a hydrophobic colloidal solution of a glycosphingolipid using DMSO as an organic solvent was examined. KRN7000 was weighed in a test tube, DMSO was added to adjust the concentration to 2 mg/mL, and the mixture was heated to 85° C. to completely dissolve the KRN7000, so that a glycosphingolipid solution was obtained. […]

[1] = Protective colloid: HPMC, 0.1 mg/mL glycosphingolipid, 0.5 mg/mL HPMC, 2.5% ethanol
[2] = Protective colloid: Inulin, 0.1 mg/mL glycosphingolipid, 17.5 mg/mL inulin, 2.5% ethanol
[3] = Protective colloid: None, glycosphingolipid dissolved in ethanol, mixed with water
[4] = Protective colloid: Pullulan, 0.1 mg/mL glycosphingolipid, 5.0 mg/mL pullulan, 2.5% ethanol
[5] = inulin, 0.4 mg/mL glycosphingolipid, 28 mg/mL inulin, 20% DMSO

Question: For `CCCCCCCCCCCCCCCCCCCCCCCCCC(=O)N[C@@H](CO[C@H]1CC(CO)[C@H](O)[C@H](O)C1O)[C@H](O)[C@H](O)CCCCCCCCCCCCCC` (stereo partly shown) [RCAI-56], which “Average particle size (diameter, nm)” value [1] is on record?
Answer: Its value is 380 nm.

Question: What about the Particle size distribution [1] of the same compound?
Answer: The Particle size distribution was “Monodispersed”.

Question: And the “Average particle size (diameter, nm)” value [2]?
Answer: Its value is 169 nm.

Question: And the Particle size distribution [2]?
Answer: Its Particle size distribution is “Monodispersed”.

Question: What about the “Average particle size (diameter, nm)” value [3] of the same compound?
Answer: The value was 435 nm.

Question: What about the Particle size distribution [3] of the same compound?
Answer: Its Particle size distribution is “Polydispersed”.

Question: What about the “Average particle size (diameter, nm)” value [4] of the same compound?
Answer: The value was 174 nm.

Question: What about the Particle size distribution [4] of the same compound?
Answer: The Particle size distribution was “Monodispersed”.

Question: With `CCCCCCCCCCCCCCCCCCCCCCCCCC(=O)N[C@@H](CO[C@H]1O[C@H](COC)[C@H](O)[C@H](O)[C@H]1O)[C@H](O)[C@H](O)CCCCCCCCCCCCCC` [RCAI-61] as the compound, how does the “Average particle size (diameter, nm)” value [1] read?
Answer: The value was 191 nm.

Question: And the Particle size distribution [1]?
Answer: The Particle size distribution was “Monodispersed”.

Question: And the “Average particle size (diameter, nm)” value [2]?
Answer: The value was 298 nm.

Question: And the Particle size distribution [2]?
Answer: The Particle size distribution was “Monodispersed”.

Question: And the “Average particle size (diameter, nm)” value [3]?
Answer: Its value is 683 nm.

Question: And the Particle size distribution [3]?
Answer: Its Particle size distribution is “Polydispersed”.

Question: What about the “Average particle size (diameter, nm)” value [4] of the same compound?
Answer: Its value is 151 nm.

Question: What about the Particle size distribution [4] of the same compound?
Answer: Its Particle size distribution is “Monodispersed”.

Question: With `CCCCCCCCCCCCCCCCCCCCCCCCCC(=O)N[C@@H](CO[C@H]1O[C@H](CO)[C@H](O)[C@H](O)[C@H]1O)[C@H](O)[C@H](O)CCCCCCCCCCCCCC` [KRN7000, (2S,3S,4R)-1-O-(α-D-galactosyl)-N-hexacosanoyl-2-amino-1,3,4-octadecanetriol] as the compound, how does the average particle size [5] read?
Answer: The average particle size was 345.5 nm.

Question: What about the particle distribution [5] of the same compound?
Answer: The particle distribution was “monodispersed particles”.

Question: And the average particle size (protective colloid not used)?
Answer: Its average particle size is “large average particle size”.

Question: What about the particle distribution (protective colloid not used) of the same compound?
Answer: The particle distribution was “polydispersed particles”.

Question: What about the “Average particle size (diameter, nm)” value [1] of the same compound?
Answer: The value was 192 nm.

Question: And the Particle size distribution [1]?
Answer: Its Particle size distribution is “Monodispersed”.

Question: What about the “Average particle size (diameter, nm)” value [2] of the same compound?
Answer: Its value is 156 nm.

Question: What about the Particle size distribution [2] of the same compound?
Answer: The Particle size distribution was “Monodispersed”.

Question: What about the “Average particle size (diameter, nm)” value [3] of the same compound?
Answer: Its value is 1536 nm.

Question: And the Particle size distribution [3]?
Answer: The Particle size distribution was “Polydispersed”.

Question: And the “Average particle size (diameter, nm)” value [4]?
Answer: Its value is 149 nm.

Question: What about the Particle size distribution [4] of the same compound?
Answer: The Particle size distribution was “Monodispersed”.
